Reference: patent US20230130103A1, “TARGETED PHARMACOLOGICAL THERAPEUTICS IN UVEAL MELANOMA” (Washington University, priority 2017, published 2023)
Starred links: 1 amine or outer side, 2 acyl side, 3 side chain; linkers in the order of their positions; H or OH if unused. Positions of bridges follow the written chain, without caps; N, C: chain ends. Non-standard residues stand in square brackets, D forms with d. Residues, ends and D or L forms follow the SMILES beside them. *: point of attachment. Leu(3R-OH,Nα-propionyl) = CCC(=O)N[C@H](C(=O)*)[C@H](O)C(C)C; X1 = CC(C)[C@@H](O[*:3])[C@H](N[*:1])C(=O)[*:2]; X2 = CC(C)[C@H](O[*:3])[C@@H](N[*:1])C(=O)[*:2]; NMeaThr = CN[C@H](C(=O)O)[C@H](C)O; dPhLac = O=C(O)[C@H](O)Cc1ccccc1; NMeA = CN[C@@H](C)C(=O)O; NMeDha = C=C(NC)C(=O)O

Experiments:
[1] = system: BRAF(V600E)-driven OCM-1A cells; experiment: IP1 accumulation in UM cells (IP-One kit); assay type: cell-based, Human; details: FIG. 3B
Text: Inhibition of signaling by constitutively active Gαq in UM cultured cell lines was quantified by measuring intracellular inositol 1-phosphate (IP1), a metabolically stable product of inositol 1,4,5-trisphosphate produced by Gαq-stimulated phospholipase Cβ. FIG. 3A Basal IP1 levels in UM cell lines driven by constitutively active Gαq (92.1 and Mel202) and BRAF (OCM-1A). FIG. 3B Effects of FR on IP1 levels in 92.1, Mel202 and OCM-1A cells. *p<0.01.
A third UM cell line (OCM-1A) driven by constitutively active BRAF(V600E) served as a negative control. Signaling by Gαq-stimulated phospholipase Cβ was quantified based on levels of inositol monophosphate (IP1), a metabolically stable product of inositol 1,4,5-trisphosphate (IP3) produced by cleavage of phosphatidylinositol 4,5-bisphosphate (PIP2). […] FR reduced IP1 levels in Mel202 and 92.1 cells >50-fold (FIG. 3B), but had only modest effect (˜2-fold) on OCM-1A cells (FIG. 3B).
Accumulation of IP1 in UM cells was measured using the IP-One kit (CiSbio, Inc; catalog number 62IPAPEB) according to the supplier's instructions. 10,000 Mel 202 cells, 20,000 92.1 cells and 20,000 OCM 1A cells were seeded into white-bottom tissue culture grade 384-well plates. Following an overnight incubation, cells were treated with FR or DMSO and returned to the incubator. […] Plates were read in a Synergy H4 Hybred Reader (BioTek, Winooski, Vt., USA). […]

[2] = system: OCM-1A cells; experiment: UM cell viability, water-soluble tetrazolium salt assay; details: even at high concentration (10 μM)
Protocol: (§5) Cells were cultured at 37.0 in 5% CO2. […] Cell lines were grown in RPMI 1640 medium (Life Technologies, Carlsbad, Calif.) supplemented with 10% FBS and antibiotics. Cell viability was measured using a water-soluble tetrazolium salt, WTS-8 (Bimake, Houston, Tex.), following the manufacturer's protocol. Flow cytometry for analysis of cell proliferation and apoptosis was performed at the Siteman Cancer Center Flow Cytometry Core on a FACScan analyzer (BD Biosciences, San Diego Calif., USA) using a standard propidium iodide staining protocol as described previously (44).

[3] = target: T1, Gαi/q (Homo sapiens, UniProt P63096, K54R/C351G, form not given); assay type: cell-based; details: read-out: IC50, attenuation of cannabinoid type 1 receptor inhibition of forskolin-induced cAMP accumulation; via Gαi/q; Neuro2A cells, PTX-treated; FIG. 2C
T1 construct: other: via Gαi/q; the eight substituted residues copy Gαq (GNAQ) but are point changes, not a fused part of Gαq

[4] = system: OCM-1A cells; experiment: Flow cytometry of DNA content (proliferation and apoptosis); details: 3 d, FIG. 4C-D
Protocol: Cells were cultured at 37.0 in 5% CO2. […] Cell lines were grown in RPMI 1640 medium (Life Technologies, Carlsbad, Calif.) supplemented with 10% FBS and antibiotics. […] Flow cytometry for analysis of cell proliferation and apoptosis was performed at the Siteman Cancer Center Flow Cytometry Core on a FACScan analyzer (BD Biosciences, San Diego Calif., USA) using a standard propidium iodide staining protocol as described previously (44).

[5] = system: Mel202 cells; experiment: Melanocytic re-differentiation (morphology, pigmentation, immunostaining); assay type: cell-based, Human
Protocol: (§1) FIG. 5A Morphological changes elicited by FR. UM cell lines were treated 3 d with FR and imaged by phase contrast microscopy. FR caused UM cells driven by constitutively active Gαq (92.1 and Mel202) to lose their characteristic spindle shaped and assume a stellate shape with multiple projections. FR had no effect on BRAF-driven UM cells (OCM-1A). FIG. 5B Melanocytic differentiation of FR-treated UM cells indicated by pigmentation. UM cell lines were treated 3 d with FR. Cells were pelleted and examined macroscopically. […] Scale bar=50 μm.
(§2) Cell fixation was carried out by adding an equal volume of 2×fixative (PBS with 4% paraformaldehyde and 0.4% glutaraldehyde) to UM cells in RPMI growth medium. After 15 min at 37° C., cells were permeabilized with 0.1% Triton X-100 in PBS for 5 min, washed with PBS, and blocked with 2% fish gelatin (Sigma-Aldrich) in PBS. Primary and secondary antibodies were diluted in 2% fish gelatin in PBS. Primary antibodies included mouse monoclonal anti-pre-melanosomal protein (One World Lab, San Diego, Calif.), rabbit polyclonal anti-tyrosinase (One World Lab), rabbit polyclonal anti-dopachrome tautomerase (One World Lab), rabbit polyclonal anti-S100 (DakoCytomation, Denmark), and mouse monoclonal anti-BrdU (Life Technologies). Secondary antibodies were Alexa-fluor conjugates (Life Technologies), and the mounting agent was ProLong Gold (Life Technologies). Cell morphology was assessed by phase contrast imaging with an inverted microscope (Olympus IX72) using a 10×objective.

[6] = system: OCM-1A cells; experiment: as above; assay type: cell-based, Human; details: 3 d FR, FIG. 5A
Protocol: as §1, §2

[7] = system: Mel202 cells; experiment: Flow cytometry of DNA content (proliferation and apoptosis); details: 3 d, FIG. 4C-D
Protocol: as §5

[8] = system: constitutively active Gαq; experiment: SRE(L) promoter-driven transcriptional reporter; assay type: cell-based; details: driven by constitutively active Gαq; FIG. 1D; read-out: IC50, inhibition of transcriptional reporter induction
Text: (§3) (FIG. 1A-1C) depicts the effect of FR on the activity state of Gα subunits as determined by interaction with Gβγ or RGS domains in split luciferase complementation assays. FIG. 1A Effect of FR on interaction of Gβγ2 with the indicated wild type (WT) or mutant constitutively active (Q/L) forms of Gα (q) or Gα13 (13). * p<0.01; ** p<0.05. FIG. 1B Potency of FR as a driver of interaction of Gβγ2 with wild type or mutant constitutively active Gαq. FIG. 1C Potency of FR as inhibitor of interaction of RGS2 with mutant constitutively active (Q/L) Gαq, or interaction of the RGS domain of LARG (LARG-RGS) with mutant constitutively active Gα13. FIG. 1D Potency of FR as inhibitor of signal transduction by constitutively active Gαq or Gα13 detected with an SRE(L) promoter-driven transcriptional reporter. Constitutively active Gαq (Q/L), constitutively active Gαq bearing the indicated FR binding site mutations, and constitutively Gα13 (Q/L) were studied.
(§4) Assays of transcriptional reporters driven by YAP or Gα subunits were performed as described (42, 43). YAP- or Ga-driven firefly luciferase activity was normalized to Renilla luciferase expressed from a constitutive promoter.

[9] = system: constitutively active Gα13; experiment: SRE(L) promoter-driven transcriptional reporter; assay type: cell-based; details: driven by constitutively active Gα13
Text: as §3, §4

[10] = system: constitutively active Gαq bearing FR binding site mutations; experiment: SRE(L) promoter-driven transcriptional reporter; assay type: cell-based; details: read-out: IC50, inhibition of transcriptional reporter induction
Text: as §3, §4

T1 sequence (P63096 whole entry V50I/K54R/Y69F/V72L/K180P/V185I/T187Y/H188P/C351G, form open, the tested form may be a part): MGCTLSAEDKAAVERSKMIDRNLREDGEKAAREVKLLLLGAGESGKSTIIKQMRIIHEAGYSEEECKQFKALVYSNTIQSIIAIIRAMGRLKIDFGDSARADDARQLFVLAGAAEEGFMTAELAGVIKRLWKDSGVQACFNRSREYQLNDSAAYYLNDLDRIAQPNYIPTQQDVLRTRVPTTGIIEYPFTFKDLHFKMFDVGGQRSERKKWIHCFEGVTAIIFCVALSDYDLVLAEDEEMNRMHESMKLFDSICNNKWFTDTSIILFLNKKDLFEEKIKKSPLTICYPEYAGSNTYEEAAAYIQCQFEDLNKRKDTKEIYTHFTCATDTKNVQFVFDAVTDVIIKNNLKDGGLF

SMILES: C=C1C(=O)N[C@@H](C)C(=O)N(C)[C@@H](C)C(=O)N[C@H]([C@@H](OC(=O)[C@@H](NC(=O)CC)[C@H](O)C(C)C)C(C)C)C(=O)N(C)[C@@H]([C@H](C)OC)C(=O)O[C@H](C(C)C)[C@H](NC(C)=O)C(=O)O[C@H](Cc2ccccc2)C(=O)N1C [FR, [(1S)-1-[(3S,6R,9S,12S,18R,21S,22R)-21-acetamido-18-benzyl-3-[(1S)-1-methoxyethyl]-4,9,10,12,16-pentamethyl-15-methylidene-2,5,8,11,14,17,20-heptaoxo-22-propan-2-yl-1,19-dioxa-4,7,10,13,16-pentazacyclodocos-6-yl]-2-methylpropyl] (2S,3R)-3-hydroxy-4-methyl-2-(propanoylamino)pentanoate] (Ac-[X1][dPhLac][NMeDha]A[NMeA][X2](Leu(3R-OH,Nα-propionyl))[NMeaThr](Me); ester 1-C)
- effect on IP1 levels [1]: ~2 fold
- effect on proliferation [2]: no effect
- IC50 [3]: 25 nM
- cell cycle inhibition and apoptosis [4]: no effect
- cell morphology (phase contrast) ([5]; 3 d FR, FIG. 5A): morphological changes indicative of re-differentiation
- melanocytic pigmentation ([5]; 3 d FR, FIG. 5B): strikingly increased
- expression levels of TYR, DCT and PMEL (immunofluorescence) ([5]; FIG. 5C): increased
- cell morphology (phase contrast) [6]: no effect
- apoptosis (sub-G1/G0 cells) [7]: increased levels of sub-G1/G0 cells
- cell cycle inhibition (decreased levels of S- and G2/M-phase cells) [7]: induced cell cycle inhibition
- IC50 [8]: 1 nM
- effect on expression of the transcriptional reporter [9]: no effect
- IC50 [10]: 30 to 70 nM
